For assay [1], the target named is Phosphatidylinositol 4-kinase alpha (Homo sapiens, UniProt P42356). Nature of the assay: Selectivity interaction (ActivX KiNativ screen (ex vivo kinase selectivity in human PBMCs)) EUB0001619a PI4KA. It is filed as cell-based. Conditions: PBMC, at 1 µM.
The target of assay [2] is T1, Tyrosine-protein kinase JAK3 (Homo sapiens) (UniProt P52333).
T1 sequence (whole entry): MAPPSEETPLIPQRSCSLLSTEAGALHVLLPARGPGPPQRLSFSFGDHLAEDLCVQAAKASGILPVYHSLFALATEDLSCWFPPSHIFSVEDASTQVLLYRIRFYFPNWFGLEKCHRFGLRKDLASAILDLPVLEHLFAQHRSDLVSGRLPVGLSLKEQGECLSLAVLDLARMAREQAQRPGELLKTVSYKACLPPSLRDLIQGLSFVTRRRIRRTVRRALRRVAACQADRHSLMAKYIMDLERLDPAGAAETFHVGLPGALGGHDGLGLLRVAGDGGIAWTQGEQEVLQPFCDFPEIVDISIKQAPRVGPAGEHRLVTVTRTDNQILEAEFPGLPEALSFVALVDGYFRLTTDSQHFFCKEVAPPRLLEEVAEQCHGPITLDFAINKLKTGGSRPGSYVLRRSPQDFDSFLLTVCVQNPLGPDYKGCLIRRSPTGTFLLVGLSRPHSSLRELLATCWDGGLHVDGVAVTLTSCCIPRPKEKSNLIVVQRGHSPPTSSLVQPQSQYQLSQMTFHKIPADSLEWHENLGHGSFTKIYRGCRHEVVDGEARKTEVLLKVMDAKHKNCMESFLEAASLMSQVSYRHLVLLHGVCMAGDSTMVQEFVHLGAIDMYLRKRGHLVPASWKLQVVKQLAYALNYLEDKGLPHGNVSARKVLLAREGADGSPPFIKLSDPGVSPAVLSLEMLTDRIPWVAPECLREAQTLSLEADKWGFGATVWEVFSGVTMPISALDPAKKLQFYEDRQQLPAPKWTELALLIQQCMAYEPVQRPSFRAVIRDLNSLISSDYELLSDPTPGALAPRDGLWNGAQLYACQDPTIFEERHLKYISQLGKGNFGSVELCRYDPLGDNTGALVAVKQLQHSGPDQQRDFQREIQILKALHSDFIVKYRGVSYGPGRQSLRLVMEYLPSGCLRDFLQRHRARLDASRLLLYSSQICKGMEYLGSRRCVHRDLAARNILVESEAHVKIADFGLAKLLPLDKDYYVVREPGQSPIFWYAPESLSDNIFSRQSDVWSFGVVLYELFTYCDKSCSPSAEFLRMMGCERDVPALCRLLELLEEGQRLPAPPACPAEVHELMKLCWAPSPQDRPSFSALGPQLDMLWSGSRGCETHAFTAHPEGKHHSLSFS
As to the kind of experiment: Selectivity interaction (ActivX KiNativ screen (ex vivo kinase selectivity in human PBMCs)) EUB0001619a JAK3. It is filed as cell-based. The settings on record: PBMC, at 1 µM.

Assay [3] addresses Epithelial discoidin domain-containing receptor 1 (Homo sapiens) (UniProt Q08345). Nature of the assay: Selectivity interaction (KinomeScan (DiscoverX)) EUB0001619a DDR1. Conditions: at 1 µM.
The target in assay [4] is Serine/threonine-protein kinase WNK1 (Homo sapiens) (UniProt Q9H4A3). Nature of the assay: Selectivity interaction (ActivX KiNativ screen (ex vivo kinase selectivity in human PBMCs)) EUB0001619a WNK1. In kind it is cell-based. The settings on record: PBMC, at 1 µM.
Assay [5] concerns the target Serine/threonine-protein kinase PAK 1 (Homo sapiens) (UniProt Q13153). Nature of the assay: Selectivity interaction (KinomeScan (DiscoverX)) EUB0000666a PAK1. Conditions: at 10 µM.
Assay [6] deals with Fibroblast growth factor receptor 1 (Homo sapiens, UniProt P11362). As to the kind of experiment: Selectivity interaction (Kinase screening (Nanosyn)) EUB0000604a FGFR1.
For assay [7], the target named is T2, Tyrosine-protein kinase JAK3 (Homo sapiens, UniProt P52333).
T2 sequence (P52333 whole entry): T1 sequence (whole entry)
Nature of the assay: Selectivity interaction (Enyzmatic assay) EUB0000601a JAK3.

Assay [8] has as its target Tyrosine-protein kinase SYK (Homo sapiens, UniProt P43405). As to the kind of experiment: Selectivity interaction (ActivX KiNativ screen (kinase selectivity in THP-1 cell lysates)) EUB0000639a SYK. It is filed as subcellular. The settings on record: lysate, at 0.01 µM.
Assay [9] deals with Mitogen-activated protein kinase 11 (Homo sapiens) (UniProt Q15759). Nature of the assay: Selectivity interaction (KinomeScan (DiscoverX)) EUB0000045b MAPK11.
Mitogen-activated protein kinase 11 (Homo sapiens), sequence (Q15759 whole entry): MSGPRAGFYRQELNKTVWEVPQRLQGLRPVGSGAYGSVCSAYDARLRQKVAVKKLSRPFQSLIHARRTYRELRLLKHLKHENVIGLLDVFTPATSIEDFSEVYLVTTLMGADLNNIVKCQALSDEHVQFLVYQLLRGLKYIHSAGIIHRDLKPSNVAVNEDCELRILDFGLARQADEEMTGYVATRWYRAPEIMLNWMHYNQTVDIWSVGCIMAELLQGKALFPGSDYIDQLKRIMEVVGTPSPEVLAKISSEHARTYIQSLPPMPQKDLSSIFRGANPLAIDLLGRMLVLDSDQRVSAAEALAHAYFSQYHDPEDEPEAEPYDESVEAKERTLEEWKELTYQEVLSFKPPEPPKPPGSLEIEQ
Assay [10] deals with Cyclin-dependent kinase 19 (Homo sapiens) (UniProt Q9BWU1). As to the kind of experiment: Selectivity interaction (KinomeScan (DiscoverX)) EUB0001049a CDK19. The settings on record: at 1 µM.
Cyclin-dependent kinase 19 (Homo sapiens), sequence (Q9BWU1 whole entry): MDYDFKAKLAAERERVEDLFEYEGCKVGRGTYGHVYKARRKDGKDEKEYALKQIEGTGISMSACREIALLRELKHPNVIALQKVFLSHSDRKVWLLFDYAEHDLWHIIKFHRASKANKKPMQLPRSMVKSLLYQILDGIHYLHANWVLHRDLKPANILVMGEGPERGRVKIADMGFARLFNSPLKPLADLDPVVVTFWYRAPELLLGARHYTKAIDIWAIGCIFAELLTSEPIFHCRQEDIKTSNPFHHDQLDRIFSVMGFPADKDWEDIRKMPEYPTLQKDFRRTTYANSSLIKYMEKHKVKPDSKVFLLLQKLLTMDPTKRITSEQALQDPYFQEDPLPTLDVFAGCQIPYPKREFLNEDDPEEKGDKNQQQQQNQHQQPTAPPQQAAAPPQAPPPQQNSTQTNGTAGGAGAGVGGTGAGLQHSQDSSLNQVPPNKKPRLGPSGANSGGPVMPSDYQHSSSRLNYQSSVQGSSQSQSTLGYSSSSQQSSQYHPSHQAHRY
Assay [11] deals with Calcium/calmodulin-dependent protein kinase type 1D (Homo sapiens) (UniProt Q8IU85). Nature of the assay: Selectivity interaction (KinomeScan (DiscoverX)) EUB0001049a CAMK1D. The settings on record: at 1 µM.
Calcium/calmodulin-dependent protein kinase type 1D (Homo sapiens), sequence (Q8IU85 whole entry, looked up): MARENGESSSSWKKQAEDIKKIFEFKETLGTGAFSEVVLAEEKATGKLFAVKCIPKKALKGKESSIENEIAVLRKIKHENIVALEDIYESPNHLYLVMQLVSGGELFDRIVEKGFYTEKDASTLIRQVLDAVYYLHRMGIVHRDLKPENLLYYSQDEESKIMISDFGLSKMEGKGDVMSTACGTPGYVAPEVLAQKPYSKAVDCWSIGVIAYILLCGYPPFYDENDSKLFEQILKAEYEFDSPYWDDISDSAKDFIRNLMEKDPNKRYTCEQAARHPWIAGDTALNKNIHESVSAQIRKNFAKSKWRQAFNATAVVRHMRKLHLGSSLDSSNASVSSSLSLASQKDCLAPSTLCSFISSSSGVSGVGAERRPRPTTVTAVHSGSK
In assay [12] the target is T3, Peripheral plasma membrane protein CASK (Homo sapiens) (UniProt O14936).
T3 sequence (whole entry): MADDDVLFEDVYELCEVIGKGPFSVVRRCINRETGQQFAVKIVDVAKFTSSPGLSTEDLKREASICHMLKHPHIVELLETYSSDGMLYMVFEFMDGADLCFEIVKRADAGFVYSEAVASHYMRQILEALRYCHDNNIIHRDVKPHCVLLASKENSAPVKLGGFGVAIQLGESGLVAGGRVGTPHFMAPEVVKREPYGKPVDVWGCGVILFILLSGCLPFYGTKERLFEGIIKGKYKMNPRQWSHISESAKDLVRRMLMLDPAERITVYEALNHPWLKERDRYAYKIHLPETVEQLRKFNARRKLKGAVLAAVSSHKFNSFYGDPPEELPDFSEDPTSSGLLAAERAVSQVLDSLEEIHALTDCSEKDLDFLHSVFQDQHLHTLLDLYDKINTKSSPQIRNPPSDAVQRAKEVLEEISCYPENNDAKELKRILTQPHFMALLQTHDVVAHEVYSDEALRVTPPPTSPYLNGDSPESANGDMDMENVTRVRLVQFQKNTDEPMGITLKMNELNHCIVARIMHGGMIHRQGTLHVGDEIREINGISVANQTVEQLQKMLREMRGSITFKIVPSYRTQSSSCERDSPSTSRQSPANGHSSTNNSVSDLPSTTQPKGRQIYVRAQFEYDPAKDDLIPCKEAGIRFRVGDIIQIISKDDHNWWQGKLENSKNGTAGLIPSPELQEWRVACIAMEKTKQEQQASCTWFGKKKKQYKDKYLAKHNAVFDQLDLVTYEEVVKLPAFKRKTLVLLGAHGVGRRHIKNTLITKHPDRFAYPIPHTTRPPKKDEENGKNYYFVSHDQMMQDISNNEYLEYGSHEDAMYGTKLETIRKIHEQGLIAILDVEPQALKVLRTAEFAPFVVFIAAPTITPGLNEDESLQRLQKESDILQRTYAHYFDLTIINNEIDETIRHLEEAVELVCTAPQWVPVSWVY
Nature of the assay: Selectivity interaction (KinomeScan (DiscoverX)) EUB0000655a CASK. Conditions: at 10 µM.

A further assay addresses Misshapen-like kinase 1 (Homo sapiens, UniProt Q8N4C8). Nature of the assay: Selectivity interaction (SelectScreen Kinase Profiling (Thermo Fisher Scientific)) EUB0001558a MINK1. Conditions: at 1 µM.
The target of assay [13] is Ephrin type-A receptor 2 (Homo sapiens) (UniProt P29317). As to the kind of experiment: Selectivity interaction (Millipore kinase profiler) EUB0000124b EPHA2. Conditions: at 10 µM.
Ephrin type-A receptor 2 (Homo sapiens), sequence (P29317 whole entry): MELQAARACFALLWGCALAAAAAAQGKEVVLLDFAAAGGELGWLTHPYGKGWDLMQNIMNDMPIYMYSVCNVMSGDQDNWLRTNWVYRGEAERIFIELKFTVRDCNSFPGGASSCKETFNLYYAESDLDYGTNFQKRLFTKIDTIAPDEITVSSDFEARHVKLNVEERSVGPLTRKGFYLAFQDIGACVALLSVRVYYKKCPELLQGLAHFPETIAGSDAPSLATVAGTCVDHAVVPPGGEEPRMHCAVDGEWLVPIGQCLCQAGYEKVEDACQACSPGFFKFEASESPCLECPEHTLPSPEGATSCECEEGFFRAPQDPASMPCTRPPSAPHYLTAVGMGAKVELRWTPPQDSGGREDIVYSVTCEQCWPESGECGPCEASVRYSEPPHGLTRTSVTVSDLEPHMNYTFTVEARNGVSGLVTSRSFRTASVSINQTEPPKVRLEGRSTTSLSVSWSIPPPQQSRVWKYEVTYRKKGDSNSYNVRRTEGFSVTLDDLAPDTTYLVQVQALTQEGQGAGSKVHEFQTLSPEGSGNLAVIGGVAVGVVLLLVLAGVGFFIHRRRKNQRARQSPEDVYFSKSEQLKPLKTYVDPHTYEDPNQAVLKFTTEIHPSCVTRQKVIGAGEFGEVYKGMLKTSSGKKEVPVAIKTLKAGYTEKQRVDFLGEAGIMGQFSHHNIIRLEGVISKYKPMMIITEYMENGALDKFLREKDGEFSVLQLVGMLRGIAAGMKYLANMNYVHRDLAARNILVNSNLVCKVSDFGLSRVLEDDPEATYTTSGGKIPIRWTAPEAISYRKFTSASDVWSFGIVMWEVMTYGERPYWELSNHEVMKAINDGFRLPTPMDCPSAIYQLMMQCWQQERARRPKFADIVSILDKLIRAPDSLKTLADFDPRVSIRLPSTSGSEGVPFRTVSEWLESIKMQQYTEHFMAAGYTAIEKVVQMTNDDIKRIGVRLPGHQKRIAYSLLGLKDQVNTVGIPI

Where only a bound is given, the exact number is not on record here.

Phosphatidylinositol 4-kinase alpha, sequence (P42356 whole entry, looked up): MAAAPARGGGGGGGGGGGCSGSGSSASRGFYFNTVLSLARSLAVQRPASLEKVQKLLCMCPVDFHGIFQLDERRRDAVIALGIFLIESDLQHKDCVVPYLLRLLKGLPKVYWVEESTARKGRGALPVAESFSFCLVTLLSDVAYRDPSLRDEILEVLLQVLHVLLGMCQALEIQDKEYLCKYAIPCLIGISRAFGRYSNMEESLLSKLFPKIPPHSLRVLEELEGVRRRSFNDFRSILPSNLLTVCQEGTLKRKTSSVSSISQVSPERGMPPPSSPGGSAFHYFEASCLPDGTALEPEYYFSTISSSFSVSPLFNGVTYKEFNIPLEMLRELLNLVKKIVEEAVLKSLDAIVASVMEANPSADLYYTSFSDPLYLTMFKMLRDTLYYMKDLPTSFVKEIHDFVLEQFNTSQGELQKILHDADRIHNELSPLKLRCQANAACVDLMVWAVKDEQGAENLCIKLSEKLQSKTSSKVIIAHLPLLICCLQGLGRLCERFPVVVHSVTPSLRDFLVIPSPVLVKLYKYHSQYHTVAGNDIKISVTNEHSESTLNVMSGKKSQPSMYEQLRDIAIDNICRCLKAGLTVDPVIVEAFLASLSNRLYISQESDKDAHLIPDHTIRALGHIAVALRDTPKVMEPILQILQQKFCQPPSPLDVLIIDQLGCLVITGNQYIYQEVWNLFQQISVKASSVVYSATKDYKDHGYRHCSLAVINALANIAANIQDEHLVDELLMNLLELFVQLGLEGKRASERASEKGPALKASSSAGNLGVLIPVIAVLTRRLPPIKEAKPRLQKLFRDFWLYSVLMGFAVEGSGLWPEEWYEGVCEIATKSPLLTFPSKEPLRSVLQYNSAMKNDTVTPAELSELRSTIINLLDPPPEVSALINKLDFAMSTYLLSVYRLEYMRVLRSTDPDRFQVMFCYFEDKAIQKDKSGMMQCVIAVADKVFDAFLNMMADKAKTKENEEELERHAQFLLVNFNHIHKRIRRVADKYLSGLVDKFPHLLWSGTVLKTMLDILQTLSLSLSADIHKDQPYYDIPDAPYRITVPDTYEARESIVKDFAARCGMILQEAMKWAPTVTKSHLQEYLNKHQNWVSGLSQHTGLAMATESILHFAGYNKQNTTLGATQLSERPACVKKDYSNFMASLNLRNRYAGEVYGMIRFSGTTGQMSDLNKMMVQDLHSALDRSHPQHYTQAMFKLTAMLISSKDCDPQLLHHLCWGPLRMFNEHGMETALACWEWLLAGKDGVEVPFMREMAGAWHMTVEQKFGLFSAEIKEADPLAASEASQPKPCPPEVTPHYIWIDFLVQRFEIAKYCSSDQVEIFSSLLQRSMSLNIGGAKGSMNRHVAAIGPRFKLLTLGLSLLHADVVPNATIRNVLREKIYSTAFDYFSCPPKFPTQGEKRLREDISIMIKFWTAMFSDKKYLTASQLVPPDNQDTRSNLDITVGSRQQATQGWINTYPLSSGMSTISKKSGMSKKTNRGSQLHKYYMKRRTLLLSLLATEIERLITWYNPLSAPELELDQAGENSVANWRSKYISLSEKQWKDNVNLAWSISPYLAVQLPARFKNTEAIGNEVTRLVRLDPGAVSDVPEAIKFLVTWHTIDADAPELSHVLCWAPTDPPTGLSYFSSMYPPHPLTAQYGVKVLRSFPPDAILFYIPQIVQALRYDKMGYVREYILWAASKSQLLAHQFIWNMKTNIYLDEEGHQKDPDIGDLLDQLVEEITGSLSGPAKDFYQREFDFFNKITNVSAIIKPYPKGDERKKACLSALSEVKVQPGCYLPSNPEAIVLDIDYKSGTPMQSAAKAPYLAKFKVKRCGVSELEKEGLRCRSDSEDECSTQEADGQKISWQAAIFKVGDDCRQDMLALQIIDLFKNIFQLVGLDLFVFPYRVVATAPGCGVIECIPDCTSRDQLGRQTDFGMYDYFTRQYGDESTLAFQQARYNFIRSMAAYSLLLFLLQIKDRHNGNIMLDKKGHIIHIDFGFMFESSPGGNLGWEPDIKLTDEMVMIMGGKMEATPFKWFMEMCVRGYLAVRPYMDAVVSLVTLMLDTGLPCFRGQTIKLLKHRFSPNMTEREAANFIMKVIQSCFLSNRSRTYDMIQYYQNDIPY
Serine/threonine-protein kinase PAK 1 (Homo sapiens), sequence (Q13153 whole entry): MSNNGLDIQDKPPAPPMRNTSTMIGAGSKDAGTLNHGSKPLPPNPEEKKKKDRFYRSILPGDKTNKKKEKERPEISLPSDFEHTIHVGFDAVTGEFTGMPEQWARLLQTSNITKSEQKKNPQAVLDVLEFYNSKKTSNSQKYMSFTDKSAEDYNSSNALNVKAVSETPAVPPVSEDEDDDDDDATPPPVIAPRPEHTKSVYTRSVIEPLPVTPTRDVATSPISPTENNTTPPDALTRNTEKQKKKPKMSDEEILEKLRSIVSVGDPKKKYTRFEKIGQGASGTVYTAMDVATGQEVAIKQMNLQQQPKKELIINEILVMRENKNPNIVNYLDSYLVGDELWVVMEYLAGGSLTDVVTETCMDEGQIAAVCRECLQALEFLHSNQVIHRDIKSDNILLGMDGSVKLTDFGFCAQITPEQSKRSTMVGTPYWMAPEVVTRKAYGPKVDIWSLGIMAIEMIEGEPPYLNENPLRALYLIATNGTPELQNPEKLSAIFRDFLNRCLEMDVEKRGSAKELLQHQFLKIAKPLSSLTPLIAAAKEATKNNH

For `N#Cc1cccc(-c2c[nH]c3ncnc(N4CCOCC4)c23)c1`, the figures for the % of inhibition in [1], in [2] and in assay [4] were 6%, 7% and -1%, respectively. In assay [3], this molecule returned a % of control of 100%.

`O=C(NOC[C@H](O)CO)c1ccc(F)c(F)c1Nc1ccc(I)cc1F` gave a % of control in assay [5] of 100%.

For `Cc1cnc(Nc2ccc(F)cc2Cl)nc1-c1c[nH]c(C(=O)N[C@H](CO)c2cccc(Cl)c2)c1`, the % of inhibition in [6] turned out to be 3%.

With `CCc1cc(Nc2nccc(-c3c(-c4ccc(OC)c(C(=O)Nc5c(F)cccc5F)c4)nc4ccccn34)n2)c(OC)cc1N1CCC(N2CCN(S(C)(=O)=O)CC2)CC1`, the IC50 (commonly the midpoint of a concentration-inhibition curve) in assay [7] was > 10 µM.

In the case of `CC[C@@H]1[C@H](F)C(=O)N[C@@H]1COc1nccc2cc(C(N)=O)c(OC)cc12` [ZIMLOVISERTIB], the % of inhibition in [8] was 7.1%.

For the molecule `C=CC(=O)Nc1cc(-n2c(=O)ccc3cnc4ccc(-c5ccc(NS(C)(=O)=O)cc5)cc4c32)ccc1C`, the figures for the % of control in assay [9] (at 1 µM) and in assay [9] (at 10 µM) were 90% and 95%, respectively.

Turning to `COc1cc(Nc2nc(C)cc(-c3cnn4nc(OC)ccc34)n2)cc(C(F)(F)F)c1`, the % of control in assay [10] is 91%; in assay [11] it was 84%.

`CN(C)CCOc1ccc(-c2nc(-c3ccncc3)c(-c3ccc4c(c3)CC/C4=N\O)[nH]2)cc1` had a % of control in [12] of 82%.

For `CC(C)(O)[C@H](F)CN1Cc2cc(NC(=O)c3cnn4cccnc34)c(N3CCOCC3)cc2C1=O`, the % of inhibition at Misshapen-like kinase 1 was 80.5%.

In turn, `CC(=O)Nc1cccc(-n2c(=O)n(C3CC3)c(=O)c3c(Nc4ccc(I)cc4F)n(C)c(=O)c(C)c32)c1` registered a % of control in assay [13] of 93%.
